Experimental data published in the NIST ThermoML archive (doi:10.1021/je060271a).

Details: 283.14 K, Liquid, Vibrating tube method

CCCCCCC(=O)OCC(COC(=O)CCCCCC)(COC(=O)CCCCCC)COC(=O)CCCCCC [pentaerythritol tetraheptanoate]
Details	mass density [kg/m3]
5880.4 kPa	989.3
5889.4 kPa	989.2
5899.2 kPa	989.3
5907.7 kPa	989.3
5916.4 kPa	989.3
5925.4 kPa	989.4
5935.4 kPa	989.3
5944.2 kPa	989.2
5952.8 kPa	989.3
5962.7 kPa	989.3
5971.7 kPa	989.2
5980.7 kPa	989.3
5989.5 kPa	989.3
6000.4 kPa	989.2
6009 kPa	989.3
6017.5 kPa	989.3
6028.4 kPa	989.4
6037.6 kPa	989.3
6046.5 kPa	989.3
6055.5 kPa	989.5
6066.2 kPa	989.3
6075.2 kPa	989.4
6084.6 kPa	989.5
6094.9 kPa	989.3
6104.1 kPa	989.3
6113.4 kPa	989.5
6124.2 kPa	989.4
6133.5 kPa	989.4
6142.8 kPa	989.4
6153.4 kPa	989.4
6162.9 kPa	989.4
6172.4 kPa	989.4
6182.1 kPa	989.4
6193.1 kPa	989.4
6202.5 kPa	989.4
6212.1 kPa	989.4
6223.2 kPa	989.5
6232.9 kPa	989.5
6242.4 kPa	989.5
6254.1 kPa	989.4
6263.6 kPa	989.5
6273.3 kPa	989.5
6282.8 kPa	989.6
6294.6 kPa	989.5
6304.3 kPa	989.6
6314.1 kPa	989.6
6325.9 kPa	989.5
6335.9 kPa	989.5
6345.6 kPa	989.6
6355.6 kPa	989.5
6367.7 kPa	989.5
6377.5 kPa	989.6
6387.7 kPa	989.6
6397.9 kPa	989.6
6410 kPa	989.6
6420.4 kPa	989.6
6431 kPa	989.5
6440.8 kPa	989.5
6452.9 kPa	989.6
6463.6 kPa	989.5
6473.8 kPa	989.6
6484 kPa	989.6
6494.6 kPa	989.6
6506.6 kPa	989.6
6517 kPa	989.6
6527.7 kPa	989.6
6540.3 kPa	989.7
6550.9 kPa	989.5
6564.2 kPa	989.7
6573.4 kPa	989.7
6583.9 kPa	989.7
6596.7 kPa	989.7
6607.2 kPa	989.6
6618.3 kPa	989.7
6631.8 kPa	989.7
6642.5 kPa	989.7
6653 kPa	989.7
6664.1 kPa	989.7
6677.7 kPa	989.8
6688.4 kPa	989.7
6699.5 kPa	989.7
6712.6 kPa	989.7
6723.8 kPa	989.8
6735.3 kPa	989.8
6746.7 kPa	989.9
6759.9 kPa	989.7
6771.5 kPa	989.7
6782.8 kPa	989.8
6794.2 kPa	989.8
6807.8 kPa	989.8
6818.9 kPa	989.8
6830.8 kPa	989.8
6844.4 kPa	989.8
6856.3 kPa	989.7
6868.3 kPa	989.8
6879.7 kPa	989.9
6894 kPa	989.9
6905.9 kPa	989.9
6917.3 kPa	989.9
6929.4 kPa	989.9
6943.4 kPa	989.9
6955.3 kPa	989.9
6967.2 kPa	989.9
6981.6 kPa	989.8
6993.5 kPa	989.9
7005.9 kPa	989.9
7020.3 kPa	989.8
7032.3 kPa	990
7045.1 kPa	990.1
7057.7 kPa	989.8
7072.1 kPa	989.9
7084.7 kPa	990
7096.9 kPa	989.9
7109.5 kPa	990
7124.4 kPa	989.9
7137 kPa	990
7149.8 kPa	990
7165.1 kPa	990
7178.1 kPa	989.9
7190.7 kPa	990
7203.7 kPa	990
7219 kPa	990
7232.1 kPa	990
7244.9 kPa	990.1
7258.2 kPa	990.1
7273.8 kPa	990.1
7287 kPa	990
7300 kPa	990.1
7315.9 kPa	990.1
7329.2 kPa	990
7342.5 kPa	990.1
7355.8 kPa	990
7372.2 kPa	990.3
7385.8 kPa	990.1
7399.3 kPa	990.1
7413.1 kPa	990.1
7429.3 kPa	990.2
7442.8 kPa	990.2
7456.9 kPa	990.2
7471.1 kPa	990.2
7487.7 kPa	990.1
7501.3 kPa	990.2
7515.3 kPa	990.1
7532 kPa	990.3
7546.5 kPa	990.1
7561.7 kPa	990.1
7576.2 kPa	990.3
7590.2 kPa	990.3
7604.7 kPa	990.2
7622 kPa	990.3
7636.1 kPa	990.3
7651 kPa	990.3
7668.2 kPa	990.3
7682.9 kPa	990.2
7697.4 kPa	990.3
7715.2 kPa	990.2
7729.3 kPa	990.4
7744.5 kPa	990.4
7760.2 kPa	990.3
7775.4 kPa	990.4
7793 kPa	990.3
7808 kPa	990.4
7823 kPa	990.2
7841 kPa	990.4
7855.8 kPa	990.3
7871.2 kPa	990.4
7889.8 kPa	990.4
7904.8 kPa	990.4
7920.5 kPa	990.5
7939.2 kPa	990.4
7955 kPa	990.5
7970.7 kPa	990.4
7986.3 kPa	990.4
8005.3 kPa	990.5
8020.9 kPa	990.5
8039.9 kPa	990.5
8056 kPa	990.4
8071.5 kPa	990.5
8091.2 kPa	990.5
8107.4 kPa	990.5
8123.4 kPa	990.4
8140 kPa	990.5
8156.7 kPa	990.5
8176.8 kPa	990.5
8193.5 kPa	990.4
8210.2 kPa	990.6
8226.8 kPa	990.5
8246.8 kPa	990.6
8263.9 kPa	990.5
8280.8 kPa	990.7
8301 kPa	990.6
8317.9 kPa	990.5
8338.2 kPa	990.6
8355.3 kPa	990.5
8372.7 kPa	990.6
8393.6 kPa	990.6
8411 kPa	990.6
8428.8 kPa	990.6
8446.4 kPa	990.8
8467.8 kPa	990.7
8485.5 kPa	990.7
8503.5 kPa	990.8
8524.7 kPa	990.8
8542.8 kPa	990.8
8560.9 kPa	990.8
8578.8 kPa	990.9
8601.1 kPa	990.7
8619.5 kPa	990.8
8638.2 kPa	990.8
8660.8 kPa	990.7
8679.6 kPa	990.8
8698 kPa	990.8
8716.6 kPa	990.8
8739.2 kPa	990.7
8758 kPa	990.9
8777.1 kPa	991
8800.4 kPa	990.8
8820.1 kPa	990.9
8839.6 kPa	990.9
8863 kPa	990.9
8882.8 kPa	990.9
8902.7 kPa	991
8923.2 kPa	990.9
